Experimental data: patent publication US20110190336A1, “AZABENZIMIDAZOLONES” (CARA THERAPEUTICS, INC., priority 2008, published 2011)

molecular target: T1, human DP2 receptor (Homo sapiens, UniProt Q9Y5Y4); test: Prostaglandin D2 binding inhibition assay (scintillation proximity assay, 3H PGD2, membranes of transfected CHO cells); settings: SPA, 5.5 nM 3H PGD2, CHO-K1 FLP-In human DP2 membranes; upper limit determinable 30 μM; read-out: IC50 ranges for inhibition of PGD2 binding to human DP2
T1 construct: expressed in transfected cells; host or cells: CHO-K1 FLP-In (Invitrogen, catalog no. R758-07), stably transfected
T1 sequence (Q9Y5Y4 1-395): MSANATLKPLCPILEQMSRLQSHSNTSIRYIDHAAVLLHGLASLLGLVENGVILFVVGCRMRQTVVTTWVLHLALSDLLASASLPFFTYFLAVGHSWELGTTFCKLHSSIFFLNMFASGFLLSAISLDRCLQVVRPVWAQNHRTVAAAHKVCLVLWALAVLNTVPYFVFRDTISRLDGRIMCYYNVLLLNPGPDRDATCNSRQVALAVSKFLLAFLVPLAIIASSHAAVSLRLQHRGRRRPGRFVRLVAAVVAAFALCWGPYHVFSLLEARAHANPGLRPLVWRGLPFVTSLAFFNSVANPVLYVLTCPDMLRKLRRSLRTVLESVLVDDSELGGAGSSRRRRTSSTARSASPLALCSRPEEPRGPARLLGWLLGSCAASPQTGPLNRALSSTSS
Outline: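 Membranes (5 μg) from CHO-K1 cells stably expressing human DP2 were mixed with WGA SPA beads and 5.5 nM 3H PGD2 in Tris buffer with 10 mM MgCl2, 100 mM NaCl, 0.1% BSA, plus compound. After 60 min at room temperature, CPM were read; IC50 from two-parameter nonlinear regression.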

IC50 [µM]	SMILES
> 30	Cc1ccnc2c1n(CC(=O)O)c(=O)n2C1CCN(S(=O)(=O)c2ccc(F)cc2Cl)CC1 [Compound 120, 2-(3-(1-(2-chloro-4-fluorophenylsulfonyl)piperidin-4-yl)-7-methyl-2-oxo-2,3-dihydro-1H-imidazo[4,5-b]pyridin-1-yl)acetic acid]
> 30	Cc1ccnc2c1n(CC(=O)O)c(=O)n2C1CCN(S(=O)(=O)c2ccccc2Cl)CC1 [Compound 121, 2-(3-(1-(2-chlorophenylsulfonyl)piperidin-4-yl)-7-methyl-2-oxo-2,3-dihydro-1H-imidazo[4,5-b]pyridin-1-yl)acetic acid]
> 30	Cc1ccnc2c1n(CC(=O)O)c(=O)n2C1CCN(S(=O)(=O)c2ccc(Cl)cc2Cl)CC1 [Compound 122, 2-(3-(1-(2,4-dichlorophenylsulfonyl)piperidin-4-yl)-7-methyl-2-oxo-2,3-dihydro-1H-imidazo[4,5-b]pyridin-1-yl)acetic acid]
> 30	Cc1cnc2c(c1)n(CC(=O)O)c(=O)n2C1CCN(S(=O)(=O)c2ccccc2S(C)(=O)=O)CC1 [Compound 123, 2-(6-methyl-3-(1-(2-(methylsulfonyl)phenylsulfonyl)piperidin-4-yl)-2-oxo-2,3-dihydro-1H-imidazo[4,5-b]pyridin-1-yl)acetic acid]
1 to 10	Cc1ccc(S(=O)(=O)N2CCC(n3c(=O)n(CC(=O)O)c4cc(C)cnc43)CC2)c(F)c1 [Compound 124, 2-(3-(1-(2-fluoro-4-methylphenylsulfonyl)piperidin-4-yl)-6-methyl-2-oxo-2,3-dihydro-1H-imidazo[4,5-b]pyridin-1-yl)acetic acid]
10 to 30	Cc1cnc2c(c1)n(CC(=O)O)c(=O)n2C1CCN(S(=O)(=O)c2ccc(F)cc2C)CC1 [Compound 125, 2-(3-(1-(4-fluoro-2-methylphenylsulfonyl)piperidin-4-yl)-6-methyl-2-oxo-2,3-dihydro-1H-imidazo[4,5-b]pyridin-1-yl)acetic acid]
10 to 30	Cc1cnc2c(c1)n(CC(=O)O)c(=O)n2C1CCN(S(=O)(=O)c2ccc(F)cc2Cl)CC1 [Compound 126, 2-(3-(1-(2-chloro-4-fluorophenylsulfonyl)piperidin-4-yl)-6-methyl-2-oxo-2,3-dihydro-1H-imidazo[4,5-b]pyridin-1-yl)acetic acid]
1 to 10	Cc1cnc2c(c1)n(CC(=O)O)c(=O)n2C1CCN(S(=O)(=O)c2ccccc2Cl)CC1 [Compound 127, 2-(3-(1-(2-chlorophenylsulfonyl)piperidin-4-yl)-6-methyl-2-oxo-2,3-dihydro-1H-imidazo[4,5-b]pyridin-1-yl)acetic acid]
> 30	O=C(O)Cn1c(=O)n(C2CCN(S(=O)(=O)c3ccc(F)cc3Cl)CC2)c2cccnc21 [Compound 132, 2-(1-(1-(2-chloro-4-fluorophenylsulfonyl)piperidin-4-yl)-2-oxo-1H-imidazo[4,5-b]pyridin-3(2H)-yl)acetic acid]
> 30	O=C(O)Cn1c(=O)n(C2CCN(S(=O)(=O)c3ccccc3Cl)CC2)c2cccnc21 [Compound 133, 2-(1-(1-(2-chlorophenylsulfonyl)piperidin-4-yl)-2-oxo-1H-imidazo[4,5-b]pyridin-3(2H)-yl)acetic acid]
> 30	O=C(O)Cn1c(=O)n(C2CCN(S(=O)(=O)c3ccc(Cl)cc3Cl)CC2)c2cccnc21 [Compound 134, 2-(1-(1-(2,4-dichlorophenylsulfonyl)piperidin-4-yl)-2-oxo-1H-imidazo[4,5-b]pyridin-3(2H)-yl)acetic acid]
> 30	CS(=O)(=O)c1ccccc1S(=O)(=O)N1CCC(n2c(=O)n(CC(=O)O)c3ncccc32)CC1 [Compound 135, 2-(1-(1-(2-(methylsulfonyl)phenyl-sulfonyl)piperidin-4-yl)-2-oxo-1H-imidazo[4,5-b]pyridin-3(2H)-yl)acetic acid]
> 30	O=C(O)Cn1c(=O)n(C2CCN(S(=O)(=O)c3ccc(F)cc3Cl)CC2)c2ccncc21 [Compound 140, 2-(1-(1-(2-chloro-4-fluorophenylsulfonyl)piperidin-4-yl)-2-oxo-1H-imidazo[4,5-c]pyridin-3(2H)-yl)acetic acid]
